Test results: US20260001849A1, “NOVEL B0AT1 INHIBITOR” (MITSUBISHI TANABE PHARMA CORPORATION, priority 2023, published 2026)
Like-named read-outs stand apart in the source and are kept apart here.

Legend:
Human BOAT1 = target: T1, Human BOAT1 (Homo sapiens, UniProt Q695T7); assay: hBOAT1 inhibitory test (phenylalanine uptake); assay type: cell-based; settings: Human BOAT1 stable expression CHO cells, phenylalanine 0.25 mM, read-out: hB0AT1 IC50
T1 construct: expressed in transfected cells
T1 sequence (Q695T7 1-634): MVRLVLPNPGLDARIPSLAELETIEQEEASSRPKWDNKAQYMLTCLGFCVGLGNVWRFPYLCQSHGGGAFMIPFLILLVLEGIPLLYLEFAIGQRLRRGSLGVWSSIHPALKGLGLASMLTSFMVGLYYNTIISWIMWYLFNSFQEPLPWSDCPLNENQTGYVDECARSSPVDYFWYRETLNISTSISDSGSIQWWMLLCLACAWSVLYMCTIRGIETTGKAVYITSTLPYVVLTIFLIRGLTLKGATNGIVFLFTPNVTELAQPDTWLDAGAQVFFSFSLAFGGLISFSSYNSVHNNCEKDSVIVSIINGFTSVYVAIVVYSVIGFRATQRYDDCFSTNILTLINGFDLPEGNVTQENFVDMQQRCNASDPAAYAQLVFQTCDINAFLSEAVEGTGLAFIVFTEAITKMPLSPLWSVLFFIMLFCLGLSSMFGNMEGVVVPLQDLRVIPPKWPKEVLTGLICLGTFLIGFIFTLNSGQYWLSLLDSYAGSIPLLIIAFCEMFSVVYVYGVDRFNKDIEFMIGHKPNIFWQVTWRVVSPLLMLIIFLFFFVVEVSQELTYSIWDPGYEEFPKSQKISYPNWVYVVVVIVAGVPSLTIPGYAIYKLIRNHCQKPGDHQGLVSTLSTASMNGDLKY
Method in brief: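 Human BOAT1 stably expressed in CHO cells (75000 cells/well) in HEPES-buffered NaCl/KCl/CaCl2/MgCl2 buffer with 0.01% BSA, compound at 0.5% DMSO, preincubated ≥30 min at ordinary temperature. Uptake of L-phenylalanine plus [3H]-L-phenylalanine (0.25 mM final) read by scintillation proximity; 100–200 min values analysed, non-specific uptake defined with […] reference inhibitor.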

hERG channel = target: T2, hERG channel (Homo sapiens, UniProt Q12809); assay: hERG channel inhibitory activity, whole-cell patch clamp (auto-patch clamp system); assay type: cell-based; settings: read-out: hERG IC50
T2 construct: host or cells: CHO cells
T2 sequence (Q12809 whole entry): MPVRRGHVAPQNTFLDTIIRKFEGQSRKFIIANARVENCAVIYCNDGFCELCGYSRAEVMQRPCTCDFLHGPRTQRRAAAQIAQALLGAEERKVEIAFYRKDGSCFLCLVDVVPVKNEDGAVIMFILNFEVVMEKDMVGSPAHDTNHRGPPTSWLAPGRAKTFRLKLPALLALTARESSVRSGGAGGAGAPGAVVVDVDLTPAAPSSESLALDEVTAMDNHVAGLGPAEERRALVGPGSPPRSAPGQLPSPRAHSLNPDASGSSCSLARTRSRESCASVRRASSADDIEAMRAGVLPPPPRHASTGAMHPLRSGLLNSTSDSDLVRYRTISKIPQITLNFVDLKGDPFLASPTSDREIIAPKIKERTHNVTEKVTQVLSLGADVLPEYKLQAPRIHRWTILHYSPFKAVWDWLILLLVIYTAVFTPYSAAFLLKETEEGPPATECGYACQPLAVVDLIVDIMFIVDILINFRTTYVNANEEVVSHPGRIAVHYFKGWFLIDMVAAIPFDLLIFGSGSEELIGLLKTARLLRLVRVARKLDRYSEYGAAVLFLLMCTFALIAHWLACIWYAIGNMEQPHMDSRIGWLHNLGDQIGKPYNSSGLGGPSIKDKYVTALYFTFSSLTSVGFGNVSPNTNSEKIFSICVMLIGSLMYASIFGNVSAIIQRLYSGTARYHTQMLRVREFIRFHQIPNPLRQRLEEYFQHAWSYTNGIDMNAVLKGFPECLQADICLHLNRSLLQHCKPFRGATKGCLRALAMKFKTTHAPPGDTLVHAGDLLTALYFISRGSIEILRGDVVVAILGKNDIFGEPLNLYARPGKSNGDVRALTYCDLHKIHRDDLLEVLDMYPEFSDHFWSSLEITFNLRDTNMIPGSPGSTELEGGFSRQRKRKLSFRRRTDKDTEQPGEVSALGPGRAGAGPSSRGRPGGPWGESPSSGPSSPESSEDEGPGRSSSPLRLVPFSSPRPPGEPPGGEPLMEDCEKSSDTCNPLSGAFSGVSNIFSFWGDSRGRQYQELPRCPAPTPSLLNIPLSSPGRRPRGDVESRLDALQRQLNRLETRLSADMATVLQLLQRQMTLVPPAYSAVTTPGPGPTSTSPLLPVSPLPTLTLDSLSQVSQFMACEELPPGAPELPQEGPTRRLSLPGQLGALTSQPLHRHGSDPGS
Procedure: Evaluation of hERG (Human Ether-a-go-go Related Gene) Channel Inhibitory Activity
The hERG channel inhibitory activity of the compound of the present invention was measured using CHO cells (B′ SYS GmbH) forcibly expressing hERG channels involved in human rapidly active delayed rectifier potassium current (IKr) by the whole-cell patch clamp method using an auto-patch clamp system (SyncroPatch384PE).
Cell suspension, extracellular fluid, intracellular fluid, and measurement plate (NPC-384 plate) were placed in the auto-patch clamp system, and hERG current measurements were performed using the whole-cell patch clamp method. The voltage protocol was set to a holding potential of −80 mV, with a depolarizing pulse preceded by −90 mV (100 ms) and followed by −80 mV (100 ms).
The depolarizing pulse was […] (500 ms), and then the hERG peak current value obtained during the ramp phase was measured when the voltage was lowered to −80 mV over 100 ms. The protocol was applied at 5-second intervals for 5 minutes for each concentration.
SyncroPatch software (manufactured by Nanion) was used for data analysis. Four concentrations were applied incrementally for each test substance, and the average hERG Peak current value obtained from the last three stimuli of each applied concentration was used as the evaluation data. The IC50 value was calculated from the inhibition rate of the current at each concentration of each test substance relative to the pre-application value using Hill's equation (Hill equation) using the relevant software.
The same experiments were also performed using the example compounds described in WO 2023/145804 as comparative example compounds 1-4.

[1] = [3H]-L-phenylalanine uptake, radioactivity after 100 to 200 min

Compound | IC50 (Human BOAT1; [1]) [nM] | IC50 (hERG channel) [nM] | IC50 (Human BOAT1; phenylalanine uptake) [nM]
CC1CN(C(=O)CNC(=O)/C=C/c2ccc(C(F)(F)F)cc2F)CCN1CCCC(=O)O (centres unmarked) [I-231] | 234 | > 30000 | 
O=C(O)CCCN1CCN(C(=O)CNC(=O)/C=C/c2ccc(C(F)(F)F)cc2F)[C@@H](c2ccc(Br)cc2)C1 [I-232] | 30 | 19300 | 
O=C(O)CCCN1CCN(C(=O)CNC(=O)/C=C/c2ccc(C(F)(F)F)cc2F)C(c2ccccc2Cl)C1 (centres unmarked) [I-233] | 609 | > 30000 | 
O=C(O)CCCN1CCN(C(=O)CNC(=O)/C=C/c2ccc(C(F)(F)F)cc2F)C(c2ccc(F)cc2)C1 (centres unmarked) [I-237] | 199 | > 30000 | 
O=C(O)CCCN1CCN(C(=O)CNC(=O)/C=C/c2ccc(C(F)(F)F)cc2F)C(c2cccc(Cl)c2)C1 (centres unmarked) [I-238] | 97 | > 30000 | 
O=C(O)CCCN1CCN(C(=O)CNC(=O)/C=C/c2ccc(C(F)(F)F)cc2F)C(c2cccc(F)c2)C1 (centres unmarked) [I-239] | 302 | > 30000 | 
O=C(O)CCCN1CCN(C(=O)CNC(=O)/C=C/c2ccc(C(F)(F)F)cc2F)C(c2ccccc2F)C1 (centres unmarked) [I-240] | 197 | > 30000 | 
O=C(O)CCN1CCN(C(=O)CNC(=O)/C=C/c2ccc(C(F)(F)F)cc2F)C(c2ccccc2)C1 (centres unmarked) [I-241] | 161 | > 30000 | 
O=C(O)CCCCN1CCN(C(=O)CNC(=O)/C=C/c2ccc(C(F)(F)F)cc2F)C(c2ccccc2)C1 (centres unmarked) [I-242] | 158 | > 30000 | 
O=C(O)CCCN1CCN(C(=O)CNC(=O)/C=C/c2ccc(C(F)(F)F)cc2F)[C@@H](C(F)(F)F)C1 [I-243] | 3700 | > 30000 | 
O=C(O)CCCN1CCN(C(=O)CNC(=O)/C=C/c2ccc(C(F)(F)F)cc2F)[C@H](C(F)(F)F)C1 [I-244] | 613 | > 30000 | 
O=C(/C=C/c1ccc(C(F)(F)F)cc1F)NCC(=O)N1CCN(C[C@H]2C[C@H](C(=O)O)C2)CC1c1ccc(Cl)cc1 (some centres unmarked) [I-248] | 147 | > 30000 | 
O=C(/C=C/c1ccc(C(F)(F)F)cc1F)NCC(=O)N1CCN(CC23CC(C(=O)O)(C2)C3)CC1c1ccc(Cl)cc1 (centres unmarked) [I-250] | 506 | > 30000 | 
O=C(/C=C/c1ccc(C(F)(F)F)cc1F)NCC(=O)N1CCCC(c2cccc(C(=O)O)c2)C1 (centres unmarked) [I-255] |  | > 30000 | 766
O=C(O)CCCN1CCN(C(=O)CNC(=O)/C=C/c2ccc(C(F)(F)F)cc2F)C(c2ccc(Cl)c(F)c2)C1 (centres unmarked) [I-257] |  | 29600 | 108
C[C@@H]1CN(C(=O)CNC(=O)/C=C/c2ccc(C(F)(F)F)cc2F)[C@@H](c2ccccc2)CN1CCCC(=O)O [I-261] |  | > 30000 | 30
C[C@@H]1CN(C(=O)CNC(=O)/C=C/c2ccc(C(F)(F)F)cc2F)[C@@H](c2ccc(Cl)cc2)CN1CCCC(=O)O [I-337] |  | 15500 | 31

Compound | IC50 (Human BOAT1; [1]) [nM] | IC50 (hERG channel) [nM] | IC50 (Human BOAT1; phenylalanine uptake) [nM]
C[C@@H]1CN(C(=O)CNC(=O)/C=C/c2ccc(C(F)(F)F)cc2F)[C@@H](c2ccc(F)cc2)CN1CCCC(=O)O [I-338] |  | > 30000 | 54
C[C@@H]1CN(C(=O)CNC(=O)/C=C/c2ccc(C(F)(F)F)cc2F)[C@@H](c2cccc(F)c2)CN1CCCC(=O)O [I-340] |  | > 30000 | 62
O=C(O)CCCN1C[C@H](c2ccccc2)N(C(=O)CNC(=O)/C=C/c2ccc(C(F)(F)F)cc2F)CC12CC2 [I-341] |  | > 30000 | 1680
CC(C)[C@@H]1CN(C(=O)CNC(=O)/C=C/c2ccc(C(F)(F)F)cc2F)[C@@H](c2ccccc2)CN1CCCC(=O)O [I-342] |  | > 30000 | 338
CC[C@@H]1CN(C(=O)CNC(=O)/C=C/c2ccc(C(F)(F)F)cc2F)[C@@H](c2ccccc2)CN1CCCC(=O)O [I-343] |  | > 30000 | 91
C[C@@H]1CN(C(=O)CNC(=O)/C=C/c2ccc(C(F)(F)F)cc2F)[C@@H](c2ccc(F)c(F)c2)CN1CCC(=O)O [I-348] |  | > 30000 | 45
C[C@@H]1CN(C(=O)CNC(=O)/C=C/c2ccc(C(F)(F)F)cc2F)[C@@H](c2ccc(F)c(F)c2)CN1CCCC(=O)O [I-349] |  | > 30000 | 93
C[C@@H]1CN(C(=O)CNC(=O)/C=C/c2ccc(C(F)(F)F)cc2)[C@@H](c2ccc(F)c(F)c2)CN1CCCC(=O)O [I-350] |  | > 30000 | 184
C[C@@H]1[C@H](c2ccccc2)N(C(=O)CNC(=O)/C=C/c2ccc(C(F)(F)F)cc2F)CCN1CCCC(=O)O [I-353] |  | > 30000 | 400
Cc1ccc([C@H]2CN(CCCC(=O)O)[C@H](C)CN2C(=O)CNC(=O)/C=C/c2ccc(C(F)(F)F)cc2F)cc1 [I-383] | 64 | 15200 | 
C[C@@H]1CN(C(=O)CNC(=O)/C=C/c2ccc(C(F)(F)F)cc2F)[C@@H](c2cccc(C3CC3)c2)CN1CCC(=O)O [I-384] | 31 | 15800 | 
Cc1cccc([C@H]2CN(CCCC(=O)O)[C@H](C)CN2C(=O)CNC(=O)/C=C/c2ccc(C(F)(F)F)cc2F)c1 [I-385] | 70 | 21000 | 
C[C@@H]1CN(C(=O)CNC(=O)/C=C/c2ccc(C(F)(F)F)cc2F)[C@@H](c2cccnc2)CN1CCCC(=O)O [I-395] |  | > 30000 | 636
C[C@@H]1CN(C(=O)CNC(=O)/C=C/c2ccc(C(F)(F)F)cc2F)[C@@H](c2ccc(Cl)s2)CN1CCC(=O)O [I-396] |  | > 30000 | 71
[2H]C([2H])([2H])[C@@H]1CN(C(=O)CNC(=O)/C=C/c2ccc(C(F)(F)F)cc2F)[C@@H](c2ccccc2)CN1CCCC(=O)O [I-397] |  | > 30000 | 75
C[C@@H]1CN(C(=O)CNC(=O)/C=C/c2ccc(C(F)(F)F)cc2F)[C@@H](c2ccc3ccccc3c2)CN1CCCC(=O)O [I-398] |  | 25600 | 42
Cc1noc([C@H]2CN(CCCC(=O)O)CCN2C(=O)CNC(=O)/C=C/c2ccc(C(F)(F)F)cc2F)n1 [I-401] |  | > 30000 | 2900
